Legend:
Assay in all cases: biochemical
Parameters in all cases: KINOMEscan competition binding panel (Eurofins DiscoverX), single concentration, % inhibition
Settings in all cases: read-out: 7 at 1 µM % inhibition
[1] = molecular target: T1, RSK4(Kin.Dom.2-C-terminal) (Homo sapiens, UniProt Q9UK32)
T1 construct: gene RPS6KA6; Kin.Dom.2-C-terminal
Summary of the method: (§1)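 Kinome-wide profiling (KINOMEscan, >400 human kinases) was run at 1 µM compound.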

[2] = molecular target: EPHA3 (Homo sapiens, UniProt P29320)
Summary of the method: as §1

[3] = molecular target: LIMK1 (Homo sapiens, UniProt P53667)
Summary of the method: as §1

[4] = molecular target: T2, PCTK3 (Homo sapiens, UniProt Q07002)
T2 construct: gene CDK18
Summary of the method: as §1

[5] = molecular target: T3, YSK1 (Homo sapiens, UniProt O00506)
T3 construct: gene STK25
Summary of the method: as §1

[6] = molecular target: FGFR1 (Homo sapiens, UniProt P11362)
Summary of the method: as §1

[7] = molecular target: T4, RIPK5 (Homo sapiens, UniProt Q6XUX3)
T4 construct: gene DSTYK
Summary of the method: as §1

[8] = molecular target: T5, CDC2L5 (Homo sapiens, UniProt Q14004)
T5 construct: gene CDK13
Summary of the method: as §1

[9] = molecular target: IGF1R (Homo sapiens, UniProt P08069)
Summary of the method: as §1

[10] = molecular target: EGFR(L747-S752del, P753S) (Homo sapiens, UniProt P00533, DEL747-752/P753S)
Summary of the method: as §1

[11] = molecular target: T6, NDR2 (Homo sapiens, UniProt Q9Y2H1)
T6 construct: gene STK38L
Summary of the method: as §1

[12] = molecular target: CDK3 (Homo sapiens, UniProt Q00526)
Summary of the method: as §1

[13] = molecular target: NEK1 (Homo sapiens, UniProt Q96PY6)
Summary of the method: as §1

[14] = molecular target: MARK2 (Homo sapiens, UniProt Q7KZI7)
Summary of the method: as §1

[15] = molecular target: ULK3 (Homo sapiens, UniProt Q6PHR2)
Summary of the method: as §1

[16] = molecular target: T7, p38-alpha (Homo sapiens, UniProt Q16539)
T7 construct: gene MAPK14
Summary of the method: as §1

[17] = molecular target: AXL (Homo sapiens, UniProt P30530)
Summary of the method: as §1

[18] = molecular target: T8, ERK5 (Homo sapiens, UniProt Q13164)
T8 construct: gene MAPK7
Summary of the method: as §1

[19] = molecular target: CAMK2D (Homo sapiens, UniProt Q13557)
Summary of the method: as §1

[20] = molecular target: EPHB2 (Homo sapiens, UniProt P29323)
Summary of the method: as §1

[21] = molecular target: DYRK1A (Homo sapiens, UniProt Q13627)
Summary of the method: as §1

[22] = molecular target: CASK (Homo sapiens, UniProt O14936)
Summary of the method: as §1

[23] = molecular target: WEE1 (Homo sapiens, UniProt P30291)
Summary of the method: as §1

[24] = molecular target: SBK1 (Homo sapiens, UniProt Q52WX2)
Summary of the method: as §1

T5 sequence (Q14004 whole entry): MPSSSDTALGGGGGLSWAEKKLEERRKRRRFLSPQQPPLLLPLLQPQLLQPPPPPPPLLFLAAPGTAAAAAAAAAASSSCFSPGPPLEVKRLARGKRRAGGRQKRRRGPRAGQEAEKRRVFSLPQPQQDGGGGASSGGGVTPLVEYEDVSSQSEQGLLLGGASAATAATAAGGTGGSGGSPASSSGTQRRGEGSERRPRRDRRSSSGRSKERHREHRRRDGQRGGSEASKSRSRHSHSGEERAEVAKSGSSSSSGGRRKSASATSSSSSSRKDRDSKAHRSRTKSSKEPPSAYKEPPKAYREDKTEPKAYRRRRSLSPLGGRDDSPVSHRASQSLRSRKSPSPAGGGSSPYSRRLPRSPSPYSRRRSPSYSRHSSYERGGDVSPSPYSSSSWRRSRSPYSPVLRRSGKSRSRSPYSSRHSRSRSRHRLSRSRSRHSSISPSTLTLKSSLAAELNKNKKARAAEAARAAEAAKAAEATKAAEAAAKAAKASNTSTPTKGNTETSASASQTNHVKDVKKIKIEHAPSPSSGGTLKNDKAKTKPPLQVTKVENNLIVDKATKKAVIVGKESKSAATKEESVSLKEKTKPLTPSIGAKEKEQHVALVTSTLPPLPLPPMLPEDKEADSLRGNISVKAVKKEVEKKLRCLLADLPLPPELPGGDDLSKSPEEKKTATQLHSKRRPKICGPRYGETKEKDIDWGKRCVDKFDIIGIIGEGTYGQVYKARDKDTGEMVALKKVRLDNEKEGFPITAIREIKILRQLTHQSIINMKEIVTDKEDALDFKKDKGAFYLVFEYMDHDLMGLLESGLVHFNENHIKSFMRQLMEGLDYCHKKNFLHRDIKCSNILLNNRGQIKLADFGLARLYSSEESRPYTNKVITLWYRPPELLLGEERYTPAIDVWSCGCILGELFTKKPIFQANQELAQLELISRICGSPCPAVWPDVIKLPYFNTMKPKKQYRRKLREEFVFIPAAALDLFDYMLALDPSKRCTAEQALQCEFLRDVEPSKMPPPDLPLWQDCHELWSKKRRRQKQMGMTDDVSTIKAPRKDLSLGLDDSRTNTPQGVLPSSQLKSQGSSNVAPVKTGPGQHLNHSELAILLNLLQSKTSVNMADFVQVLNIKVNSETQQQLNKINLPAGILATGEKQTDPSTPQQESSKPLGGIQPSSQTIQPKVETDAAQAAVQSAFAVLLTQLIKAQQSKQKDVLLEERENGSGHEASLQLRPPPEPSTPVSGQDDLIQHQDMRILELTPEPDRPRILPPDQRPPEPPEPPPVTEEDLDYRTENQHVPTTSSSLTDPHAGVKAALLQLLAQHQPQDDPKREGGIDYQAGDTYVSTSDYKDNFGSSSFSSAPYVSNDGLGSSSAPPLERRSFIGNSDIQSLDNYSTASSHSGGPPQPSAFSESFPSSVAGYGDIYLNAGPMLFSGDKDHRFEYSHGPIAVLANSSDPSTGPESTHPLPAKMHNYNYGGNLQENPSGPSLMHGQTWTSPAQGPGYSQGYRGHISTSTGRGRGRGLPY
T8 sequence (Q13164 whole entry): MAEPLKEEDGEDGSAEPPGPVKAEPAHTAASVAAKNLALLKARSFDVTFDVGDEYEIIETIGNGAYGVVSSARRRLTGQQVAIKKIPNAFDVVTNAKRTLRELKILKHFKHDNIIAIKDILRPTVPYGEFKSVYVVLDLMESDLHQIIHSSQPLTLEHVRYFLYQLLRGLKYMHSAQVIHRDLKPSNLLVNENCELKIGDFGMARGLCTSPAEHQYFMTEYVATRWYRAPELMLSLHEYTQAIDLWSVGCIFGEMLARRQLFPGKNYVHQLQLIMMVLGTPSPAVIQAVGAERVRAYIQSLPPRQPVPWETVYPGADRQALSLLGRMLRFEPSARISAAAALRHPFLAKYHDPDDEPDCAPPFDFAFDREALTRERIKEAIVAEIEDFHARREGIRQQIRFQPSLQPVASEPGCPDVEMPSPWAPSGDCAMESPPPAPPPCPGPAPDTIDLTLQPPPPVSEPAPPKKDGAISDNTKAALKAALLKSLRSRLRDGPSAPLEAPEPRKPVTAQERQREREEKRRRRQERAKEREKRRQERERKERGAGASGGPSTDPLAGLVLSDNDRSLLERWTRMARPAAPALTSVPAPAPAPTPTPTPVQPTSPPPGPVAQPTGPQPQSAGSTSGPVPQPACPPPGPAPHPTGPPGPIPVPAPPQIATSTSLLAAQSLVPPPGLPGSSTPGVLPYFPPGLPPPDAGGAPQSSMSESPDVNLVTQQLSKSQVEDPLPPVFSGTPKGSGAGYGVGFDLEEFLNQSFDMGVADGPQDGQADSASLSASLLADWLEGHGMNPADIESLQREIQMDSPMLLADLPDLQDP
Chain of NEK1 (Q96PY6 whole entry): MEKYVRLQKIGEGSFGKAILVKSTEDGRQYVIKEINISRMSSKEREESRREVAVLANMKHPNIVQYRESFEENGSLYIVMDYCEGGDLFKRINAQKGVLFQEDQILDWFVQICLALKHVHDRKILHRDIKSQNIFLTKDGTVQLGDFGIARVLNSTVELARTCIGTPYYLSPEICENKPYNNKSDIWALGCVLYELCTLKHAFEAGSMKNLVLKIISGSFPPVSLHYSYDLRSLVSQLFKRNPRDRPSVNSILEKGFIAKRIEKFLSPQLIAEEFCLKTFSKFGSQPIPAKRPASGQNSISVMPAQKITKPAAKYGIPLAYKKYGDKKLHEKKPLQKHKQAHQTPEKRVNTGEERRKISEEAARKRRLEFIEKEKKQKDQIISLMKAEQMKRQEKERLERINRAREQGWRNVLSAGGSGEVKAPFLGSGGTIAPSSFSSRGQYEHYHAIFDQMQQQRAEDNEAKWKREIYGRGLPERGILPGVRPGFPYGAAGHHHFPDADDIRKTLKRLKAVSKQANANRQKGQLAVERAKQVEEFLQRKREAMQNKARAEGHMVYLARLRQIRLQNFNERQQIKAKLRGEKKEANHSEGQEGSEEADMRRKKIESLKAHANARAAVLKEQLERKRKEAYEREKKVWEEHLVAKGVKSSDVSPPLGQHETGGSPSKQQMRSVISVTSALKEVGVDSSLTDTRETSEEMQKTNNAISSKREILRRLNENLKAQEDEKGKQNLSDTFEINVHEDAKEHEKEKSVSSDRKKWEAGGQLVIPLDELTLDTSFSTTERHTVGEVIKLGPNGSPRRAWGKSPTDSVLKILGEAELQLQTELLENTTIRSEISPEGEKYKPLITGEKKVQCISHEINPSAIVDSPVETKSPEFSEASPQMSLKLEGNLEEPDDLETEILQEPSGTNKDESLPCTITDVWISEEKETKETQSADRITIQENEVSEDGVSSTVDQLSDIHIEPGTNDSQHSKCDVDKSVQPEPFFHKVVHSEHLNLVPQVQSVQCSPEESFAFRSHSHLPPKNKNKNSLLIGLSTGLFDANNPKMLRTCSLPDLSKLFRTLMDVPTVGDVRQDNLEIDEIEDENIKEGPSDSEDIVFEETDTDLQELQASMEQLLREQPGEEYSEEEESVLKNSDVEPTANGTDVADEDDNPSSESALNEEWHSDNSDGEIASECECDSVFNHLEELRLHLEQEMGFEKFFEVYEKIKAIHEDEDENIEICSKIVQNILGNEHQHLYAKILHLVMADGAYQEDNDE
Chain of CASK (O14936 whole entry): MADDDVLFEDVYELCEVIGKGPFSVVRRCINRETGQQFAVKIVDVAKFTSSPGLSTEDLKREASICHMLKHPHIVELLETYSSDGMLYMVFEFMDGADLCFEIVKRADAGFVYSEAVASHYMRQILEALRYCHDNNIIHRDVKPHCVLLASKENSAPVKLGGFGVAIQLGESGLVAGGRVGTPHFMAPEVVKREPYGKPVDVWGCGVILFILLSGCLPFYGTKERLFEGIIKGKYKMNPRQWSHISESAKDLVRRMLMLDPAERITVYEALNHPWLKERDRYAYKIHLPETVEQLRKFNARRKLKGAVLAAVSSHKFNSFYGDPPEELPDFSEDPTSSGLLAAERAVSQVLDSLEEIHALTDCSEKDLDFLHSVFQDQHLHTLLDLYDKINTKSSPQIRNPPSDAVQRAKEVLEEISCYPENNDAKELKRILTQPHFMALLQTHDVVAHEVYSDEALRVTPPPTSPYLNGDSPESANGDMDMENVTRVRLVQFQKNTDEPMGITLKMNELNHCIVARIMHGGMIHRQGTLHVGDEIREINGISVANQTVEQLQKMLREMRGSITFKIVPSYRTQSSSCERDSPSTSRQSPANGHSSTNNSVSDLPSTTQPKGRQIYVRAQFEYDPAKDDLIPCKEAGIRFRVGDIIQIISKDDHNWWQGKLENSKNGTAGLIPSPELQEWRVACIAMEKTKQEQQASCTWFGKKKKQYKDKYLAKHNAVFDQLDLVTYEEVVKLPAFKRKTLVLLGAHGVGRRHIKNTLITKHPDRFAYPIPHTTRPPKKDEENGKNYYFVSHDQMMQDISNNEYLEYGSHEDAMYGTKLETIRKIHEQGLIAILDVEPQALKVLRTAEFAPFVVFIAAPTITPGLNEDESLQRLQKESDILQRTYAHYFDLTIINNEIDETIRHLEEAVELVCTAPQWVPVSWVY
Chain of CAMK2D (Q13557 whole entry): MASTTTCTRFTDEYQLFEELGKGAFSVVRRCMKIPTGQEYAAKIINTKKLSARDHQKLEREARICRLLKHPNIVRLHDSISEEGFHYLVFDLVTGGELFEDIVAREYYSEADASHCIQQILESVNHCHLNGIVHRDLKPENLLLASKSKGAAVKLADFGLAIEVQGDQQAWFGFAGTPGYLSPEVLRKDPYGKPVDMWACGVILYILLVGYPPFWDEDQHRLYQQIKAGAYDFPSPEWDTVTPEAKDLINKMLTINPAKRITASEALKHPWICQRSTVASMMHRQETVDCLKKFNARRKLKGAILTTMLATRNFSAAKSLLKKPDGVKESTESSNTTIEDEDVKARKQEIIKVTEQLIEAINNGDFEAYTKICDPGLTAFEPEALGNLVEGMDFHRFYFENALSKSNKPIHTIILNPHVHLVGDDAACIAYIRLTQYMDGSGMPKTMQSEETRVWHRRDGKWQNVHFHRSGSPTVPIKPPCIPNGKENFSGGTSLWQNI

With `CNS(=O)(=O)c1ccc(N(C)C)c(Nc2ncnc3cc(OC)c(OC)cc23)c1` [compound 7, 3-((6,7-dimethoxyquinazolin-4-yl)amino)-4-(dimethylamino)-N-methylbenzenesulfonamide] as the compound, how does the inhibition at 1 µM [1] read?
The inhibition at 1 µM was 24%.

What about the inhibition at 1 µM [2] of the same compound?
The inhibition at 1 µM was 5%.

And the inhibition at 1 µM [3]?
The inhibition at 1 µM was 0%.

What about the inhibition at 1 µM [4] of the same compound?
The inhibition at 1 µM was 0%.

And the inhibition at 1 µM [5]?
Its inhibition at 1 µM is 5%.

And the inhibition at 1 µM [6]?
The inhibition at 1 µM was 20%.

And the inhibition at 1 µM [7]?
The inhibition at 1 µM was 49%.

What about the inhibition at 1 µM [8] of the same compound?
Its inhibition at 1 µM is 0%.

And the inhibition at 1 µM [9]?
The inhibition at 1 µM was 0%.

What about the inhibition at 1 µM [10] of the same compound?
Its inhibition at 1 µM is 0%.

And the inhibition at 1 µM [11]?
The inhibition at 1 µM was 9%.

What about the inhibition at 1 µM [12] of the same compound?
Its inhibition at 1 µM is 1%.

And the inhibition at 1 µM [13]?
The inhibition at 1 µM was 0%.

What about the inhibition at 1 µM [14] of the same compound?
The inhibition at 1 µM was 0%.

And the inhibition at 1 µM [15]?
Its inhibition at 1 µM is 29%.

What about the inhibition at 1 µM [16] of the same compound?
Its inhibition at 1 µM is 0%.

What about the inhibition at 1 µM [17] of the same compound?
Its inhibition at 1 µM is 12%.

What about the inhibition at 1 µM [18] of the same compound?
Its inhibition at 1 µM is 6%.

What about the inhibition at 1 µM [19] of the same compound?
The inhibition at 1 µM was 0%.

And the inhibition at 1 µM [20]?
Its inhibition at 1 µM is 0%.

And the inhibition at 1 µM [21]?
Its inhibition at 1 µM is 0%.

What about the inhibition at 1 µM [22] of the same compound?
The inhibition at 1 µM was 0%.

What about the inhibition at 1 µM [23] of the same compound?
The inhibition at 1 µM was 0%.

What about the inhibition at 1 µM [24] of the same compound?
The inhibition at 1 µM was 29%.

Source: article PMC7180948, “New Insights into 4-Anilinoquinazolines as Inhibitors of Cardiac Troponin I–Interacting Kinase (TNNi3K)” (Molecules, 2020)
